Values after ≈ are worked out from the molar mass of the structure shown.
How the values were obtained:
human recombinant FKBP12 = biological target: T1, human recombinant FKBP12 (Homo sapiens, UniProt P62942); test: Test 1: immunophilin FKBP12 rotamase (peptidylprolyl isomerase) inhibiting activity; format: biochemical; details: 12 nM human recombinant FKBP12, substrate succinyl-Ala-Phe-Pro-Phe-paranitroanilide 48 μM, 4° C.; read-out: PKBP12 rotamase inhibiting activity IC50
T1 construct: purchased Sigma F-5398
Experimental: (Test 1) Test for Measuring Immunophilin FKBP12 Rotamase Activity
The rotamase (peptidylprolyl isomerase) inhibiting activity of each test compound was measured by a known method (Harding et al., Nature 341, 758-760, 1989; Holts et al., J. Am. Chem. Soc. 115, 9925-9938, 1993.) To be more specific, a plastic cuvette was charged with 35 mM HEPES (pH 7.8), 12 nM human recombinant FKBP12 (Sigma, F-5398), 0.4 mg/mL α-chymotrypsin, and a test compound dissolved in DMSO at varying concentrations (DMSO's final concentration was 0.1%.) Subsequently, 24 mM of the substrate peptide, succinyl-Ala-Phe-Pro-Phe-paranitroanilide, as dissolved in trifluoroethanol containing 500 mM of LiCl was added to give a final concentration of 48 μM, whereupon reaction started. The reaction was carried out at 4° C. and the change in absorbance at 390 nm accompanying the liberation of the paranitroaniline product was monitored. A calculated initial rate minus the corresponding value in the absence of the enzyme was used as an index of rotamase activity. The rotamase inhibiting activity of a test compound was expressed in relative values (%) with respect to the control value of rotamase activity in the absence of the compound, and the concentration of the compound at which it was capable of inhibiting rotamase activity by 50% was calculated as an IC50 value from its concentration response curve.

C57BL mice [1] = test: Test 3: hair development stimulating effect in shaven mouse model (Compound 1); format: in vivo; details: 5% (w/v) solution in Test 2 base, 200 μL on shaven back once daily, day 15 of the administration and onward
Experimental: (Test 3) Test for Measuring Hair Development Stimulating Effect in Shaven Mouse Model
(§1) C57BL mice (female, ca. 7-wk old) were shaven on the back and the base prepared in Test 2 or a solution prepared by dissolving 5% (w/v) of Compound 1 in this base was administered by applying them to the shaven area in 200-μL portions once daily starting 3 days after the shaving (each group consisting of 10 heads.) Every 2 or 3 days after the start of the administration, the state of hair development in the shaven area was scored in accordance with the following criteria.
(§2) Criteria for scoring the hair development: 1=No hair development. 2=Hair development in less than 30% of the shaven area. 3=Hair development in at least 30% but less than 60% of the shaven area. 4=Hair development in at least 60% but less than 90% of the shaven area. 5=Hair development in at least 90% of the shaven area.

[2] = Test 2: dissolution test in 1,3-butylene glycol/water/ethanol base; format: physicochemical; details: base: 5 g 1,3-butylene glycol + 10 g water, ethanol to 100 mL, stirred at 25° C. for 7 days, HPLC
Experimental: (Test 2) Dissolution Test
To 5 g of 1,3-butylene glycol, 10 g of water was added and the mixture was stirred until homogeneity; thereafter, ethanol was added to make a total volume of 100 mL, whereby a base was prepared.

C57BL mice [3] = test: Test 5: hair development stimulating effect in shaven mouse model (Compound 40); format: in vivo; details: 5% (w/v) solution in Test 4 base, 200 μL on shaven back once daily, day 15 of the administration and onward
From the text: as §2
(Test 5) Test for Measuring Hair Development Stimulating Effect in Shaven Mouse Model
as §1, with “Test 4” for “Test 2”, “Compound 40” for “Compound 1”, “the criteria described in Test 3.” for “the following criteria.”

[4] = tested on: proliferating cell nuclear antigen (PCNA); test: Test 6: anagen induction stimulating effect in shaven mouse model, skin PCNA by ELISA; format: in vivo; details: 5% (w/v) in 80% ethanol, 200 μL once daily for 2 days, skin sampled about 4 hours after second administration, C57BL mice
Experimental: (Test 6) Test for Measuring Anagen Induction Stimulating Effect in Shave Mouse Model
The anagen induction stimulating effect of a compound was measured by the following method with the quantity of skin PCNA being used as an index.
C57BL mice (female, ca. 7-wk old) were shaven on the back and a base (80% ethanol) or a solution prepared by dissolving 5% (w/v) of Compound 40, 52, 59, 61, 63, 64 or 66 in this base was administered by applying them to the shaven area in 200-μL portions once daily for 2 days starting 3 days after the shaving (each group consisting of 5 heads.) About 4 hours after the administration on the second day, the skin at the application site was sampled and homogenized in a buffer containing 50 mM Tris-HCl (pH 7.6), 150 mM NaCl, 1% NP-40, and a protease inhibitor. By a centrifugal separation procedure, a PCNA containing protein solution was prepared and the quantity of PCNA in the solution was measured with a PCNA-ELISA kit of Calbiochem, Inc.

[5] = Test 4: dissolution test in ethanol/water base; format: physicochemical; details: organic solvent or mixture, thermodynamic from solid; base: 79 mL ethanol, water to 100 mL; stirred at 5° C. for 3 days; HPLC
Experimental: (Test 4) Dissolution Test
To 79 mL of ethanol, water was added to give a total volume of 100 mL, whereby a base was prepared. An excess amount of a test compound was put into a test tube, the prepared base was added, and the mixture was stirred at 5° C. for 3 days and passed through a membrane filter (0.45 μm); the resulting filtrate was diluted with acetonitrile and the concentration of the diluted solution was measured by HPLC to determine the solubility of the compound.

T1 sequence (P62942 whole entry): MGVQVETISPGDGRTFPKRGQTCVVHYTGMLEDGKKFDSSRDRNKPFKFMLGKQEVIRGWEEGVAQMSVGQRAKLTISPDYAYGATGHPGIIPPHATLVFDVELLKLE

Row | Structure (SMILES) | IC50 (human recombinant FKBP12) [nM] | quantity of skin PCNA versus base administered group [4] | further results
1 | COc1ccc(OCc2cc([C@@H]3CCCN3C(=O)C(F)(F)C3(O)CC(C)(C)CC(C)(C)C3)no2)cc1OC [Compound 1, (S)-1-(2-(5-((3,4-Dimethoxyphenoxy)methyl)isoxazol-3-yl)pyrrolidin-1-yl)-2,2-difluoro-2-(1-hydroxy-3,3,5,5-tetramethylcyclohexyl)ethanone] | 49 |  | hair development scores versus base administered group (C57BL mice [1]): higher than those in the base administered group; solubility at 7 days ([2]; 1,3-butylene glycol/water/ethanol base, organic solvent or mixture, thermodynamic from solid): 57.5 mg/mL
2 | CC1(C)CC(C)(C)CC(O)(C(F)(F)C(=O)N2CCC[C@H]2c2cc(COc3cccnc3)on2)C1 [Compound 40, (S)-2,2-Difluoro-2-(1-hydroxy-3,3,5,5-tetramethylcyclohexyl)-1-(2-(5-((pyridin-3-yloxy)methyl)isoxazol-3-yl)pyrrolidin-1-yl)ethanone] | 83 | higher values for the quantity of skin PCNA than the group administered with the base | hair development scores versus base administered group (C57BL mice [3]): higher than those in the base administered group; solubility at 3 days [5]: 113 mg/mL (≈ 237 mM)
3 | CC1(C)CC(C)(C)CC(O)(C(F)(F)C(=O)N2CCC[C@H]2c2cc(COc3ccccc3)on2)C1 [Compound 52, (S)-2,2-Difluoro-2-(1-hydroxy-3,3,5,5-tetramethylcyclohexyl)-1-(2-(5-(phenoxymethyl)isoxazol-3-yl)pyrrolidin-1-yl)ethanone] | 204 | increases in the quantity of skin PCNA | 
4 | CC1(C)CC(C)(C)CC(O)(C(F)(F)C(=O)N2CCC[C@H]2c2cc(COc3ccncc3)on2)C1 [Compound 57, (S)-2,2-Difluoro-2-(1-hydroxy-3,3,5,5-tetramethylcyclohexyl)-1-(2-(5-((pyridin-4-yloxy)methyl)isoxazol-3-yl)pyrrolidin-1-yl)ethanone] | 79 |  | 
5 | CC1(C)CC(C)(C)CC(O)(C(F)(F)C(=O)N2CCC[C@H]2c2cc(COc3ncccn3)on2)C1 [Compound 58, (S)-2,2-Difluoro-2-(1-hydroxy-3,3,5,5-tetramethylcyclohexyl)-1-(2-(5-((pyrimidin-2-yloxy)methyl)isoxazol-3-yl)pyrrolidin-1-yl)ethanone] | 250 |  | 
6 | CC1(C)CC(C)(C)CC(O)(C(F)(F)C(=O)N2CCC[C@H]2c2cc(COc3cncnc3)on2)C1 [Compound 59] | 124 | increases in the quantity of skin PCNA | 
7 | CC1(C)CC(C)(C)CC(O)(C(F)(F)C(=O)N2CCC[C@H]2c2cc(Cn3ccccc3=O)on2)C1 [Compound 60, (S)-1-((3-(1-(2,2-Difluoro-2-(1-hydroxy-3,3,5,5-tetramethylcyclohexyl)acetyl)pyrrolidin-2-yl)isoxazol-5-yl)methyl)pyridin-2(1H)-one] | 376 |  | 
8 | CC1(C)CC(C)(C)CC(O)(C(F)(F)C(=O)N2CCC[C@H]2c2cc(Cn3ccc(=O)nc3)on2)C1 [Compound 61, (S)-1-((3-(1-(2,2-Difluoro-2-(1-hydroxy-3,3,5,5-tetramethylcyclohexyl)acetyl)pyrrolidin-2-yl)isoxazol-5-yl)methyl)pyrimidin-4(1H)-one] | 152 | increases in the quantity of skin PCNA | 
9 | CC1(C)CC(C)(C)CC(O)(C(F)(F)C(=O)N2CCC[C@H]2c2cc(Cn3cnccc3=O)on2)C1 [Compound 62, (S)-3-((3-(1-(2,2-Difluoro-2-(1-hydroxy-3,3,5,5-tetramethylcyclohexyl)acetyl)pyrrolidin-2-yl)isoxazol-5-yl)methyl)pyrimidin-4(3H)-one] | 210 |  | 
10 | CC1(C)CC(C)(C)CC(O)(C(F)(F)C(=O)N2CCC[C@H]2c2cc(COc3ccncn3)on2)C1 [Compound 63, (S)-2,2-Difluoro-2-(1-hydroxy-3,3,5,5-tetramethylcyclohexyl)-1-(2-(5-((pyrimidin-4-yloxy)methyl)isoxazol-3-yl)pyrrolidin-1-yl)ethanone] | 185 | increases in the quantity of skin PCNA | 
11 | CC1(C)CC(C)(C)CC(O)(C(F)(F)C(=O)N2CCC[C@H]2c2cc(COc3cccc(F)c3)on2)C1 [Compound 64, (S)-2,2-Difluoro-1-(2-(5-((3-fluorophenoxy)methyl)isoxazol-3-yl)pyrrolidin-1-yl)-2-(1-hydroxy-3,3,5,5-tetramethylcyclohexyl)ethanone] | 182 | increases in the quantity of skin PCNA | 
12 | Cc1ccc(OCc2cc([C@@H]3CCCN3C(=O)C(F)(F)C3(O)CC(C)(C)CC(C)(C)C3)no2)cc1 [Compound 65] | 241 |  | 
13 | CC1(C)CC(C)(C)CC(O)(C(F)(F)C(=O)N2CCC[C@H]2c2cc(Cn3ccc(=O)cc3)on2)C1 [Compound 66, (S)-1-((3-(1-(2,2-Difluoro-2-(1-hydroxy-3,3,5,5-tetramethylcyclohexyl)acetyl)pyrrolidin-2-yl)isoxazol-5-yl)methyl)pyridin-4(1H)-one] |  |  | skin PCNA levels relative to base administered group [4]: approximately 1.4 times
14 | COc1ccc(OCc2nc([C@@H]3CCCN3C(=O)C(F)(F)C3(O)CC(C)(C)CC(C)(C)C3)no2)cc1OC [comparative example, reference compound] |  |  | solubility [2]: 30.8 mg/mL
